{
  "source": "patent US8697739B2",
  "about": "“Bicyclic acetyl-CoA carboxylase inhibitors and uses thereof” (Novartis AG, priority 2010, dated 2014)",
  "note": "pIC50: −log10 of the molar value.",
  "data": [
    {"molecular_target": "T1, human acetyl-CoA carboxylase 2 (ACC2) (Homo sapiens, UniProt O00763)", "T1 construct": "The cDNA encoding amino acids 144 to 2458 of human acetyl-CoA carboxylase 2; made in house; host or cells: Sf9 insect cells (baculovirus, pFastBac1)", "T1 sequence (O00763 144-2458)": "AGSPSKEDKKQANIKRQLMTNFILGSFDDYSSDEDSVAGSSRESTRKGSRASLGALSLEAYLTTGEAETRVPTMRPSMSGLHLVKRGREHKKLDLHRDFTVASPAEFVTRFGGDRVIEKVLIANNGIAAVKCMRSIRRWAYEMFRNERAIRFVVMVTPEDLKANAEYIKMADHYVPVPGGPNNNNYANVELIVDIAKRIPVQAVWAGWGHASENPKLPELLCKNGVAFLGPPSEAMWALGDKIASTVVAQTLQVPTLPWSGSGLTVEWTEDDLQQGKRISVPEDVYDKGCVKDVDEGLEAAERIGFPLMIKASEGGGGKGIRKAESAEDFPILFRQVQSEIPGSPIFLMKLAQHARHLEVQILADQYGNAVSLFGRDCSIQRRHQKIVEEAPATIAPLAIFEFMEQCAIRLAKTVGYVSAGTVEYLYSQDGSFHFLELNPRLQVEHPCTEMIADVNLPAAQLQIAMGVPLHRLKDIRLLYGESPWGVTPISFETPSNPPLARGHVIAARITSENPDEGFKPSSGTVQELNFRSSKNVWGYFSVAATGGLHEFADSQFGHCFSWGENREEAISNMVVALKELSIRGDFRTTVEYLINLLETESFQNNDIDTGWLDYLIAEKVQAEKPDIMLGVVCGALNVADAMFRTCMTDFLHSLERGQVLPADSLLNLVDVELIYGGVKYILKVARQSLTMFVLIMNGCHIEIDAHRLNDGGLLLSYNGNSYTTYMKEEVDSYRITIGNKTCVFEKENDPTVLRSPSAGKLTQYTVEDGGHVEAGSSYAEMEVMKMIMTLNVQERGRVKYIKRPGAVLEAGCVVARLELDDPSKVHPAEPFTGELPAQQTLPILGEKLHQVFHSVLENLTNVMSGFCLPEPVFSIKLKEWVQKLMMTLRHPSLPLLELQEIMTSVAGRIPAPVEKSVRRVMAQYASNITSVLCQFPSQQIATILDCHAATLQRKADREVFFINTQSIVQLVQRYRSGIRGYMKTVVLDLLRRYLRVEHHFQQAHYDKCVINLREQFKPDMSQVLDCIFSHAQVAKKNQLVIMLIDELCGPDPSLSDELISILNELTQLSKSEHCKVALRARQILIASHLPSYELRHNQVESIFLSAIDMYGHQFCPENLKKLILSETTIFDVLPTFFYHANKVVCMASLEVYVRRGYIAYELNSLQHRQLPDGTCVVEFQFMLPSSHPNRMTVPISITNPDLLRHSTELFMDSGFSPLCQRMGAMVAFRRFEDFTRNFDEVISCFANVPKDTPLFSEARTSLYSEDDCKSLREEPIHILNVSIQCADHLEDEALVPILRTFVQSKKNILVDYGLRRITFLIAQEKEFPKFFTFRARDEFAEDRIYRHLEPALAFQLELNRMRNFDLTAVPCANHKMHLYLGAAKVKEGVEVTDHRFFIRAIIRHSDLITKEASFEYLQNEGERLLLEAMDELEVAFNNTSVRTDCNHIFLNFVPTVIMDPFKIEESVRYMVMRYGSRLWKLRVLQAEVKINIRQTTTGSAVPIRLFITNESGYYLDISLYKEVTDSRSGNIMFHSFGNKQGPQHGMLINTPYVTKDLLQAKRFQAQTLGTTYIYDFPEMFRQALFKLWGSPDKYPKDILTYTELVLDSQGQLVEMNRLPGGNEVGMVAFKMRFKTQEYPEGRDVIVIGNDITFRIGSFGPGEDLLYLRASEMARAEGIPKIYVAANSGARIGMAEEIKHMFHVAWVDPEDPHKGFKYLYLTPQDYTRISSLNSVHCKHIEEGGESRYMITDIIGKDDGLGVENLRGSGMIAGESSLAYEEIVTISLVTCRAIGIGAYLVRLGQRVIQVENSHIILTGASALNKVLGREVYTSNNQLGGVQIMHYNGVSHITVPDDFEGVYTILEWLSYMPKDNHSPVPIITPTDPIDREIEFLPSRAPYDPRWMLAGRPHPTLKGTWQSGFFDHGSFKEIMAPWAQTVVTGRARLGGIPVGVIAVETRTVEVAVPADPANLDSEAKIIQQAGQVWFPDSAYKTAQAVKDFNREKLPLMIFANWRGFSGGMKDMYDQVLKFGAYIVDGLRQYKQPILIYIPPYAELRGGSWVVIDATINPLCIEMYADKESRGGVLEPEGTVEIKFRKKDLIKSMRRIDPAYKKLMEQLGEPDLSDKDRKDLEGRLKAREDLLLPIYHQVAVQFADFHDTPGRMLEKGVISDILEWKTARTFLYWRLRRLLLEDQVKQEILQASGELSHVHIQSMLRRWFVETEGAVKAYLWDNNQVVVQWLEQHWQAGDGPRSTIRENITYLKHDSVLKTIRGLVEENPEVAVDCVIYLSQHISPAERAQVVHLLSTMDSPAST", "assay": "Acetyl-CoA carboxylase enzyme assay (malonyl-CoA formation by LC/MS/MS)", "format": "biochemical", "conditions": "recombinant human ACC2 (aa 144-2458); read-out: IC50 ACC2", "text": "The cDNA encoding amino acids 144 to 2458 of human acetyl-CoA carboxylase 2 (ACC2, GenBank Accession #NM_001093) was cloned into the SalI and NotI sites of pFastBac1 (Invitrogen; Carlsbad, Calif.). The resulting plasmid was used to generate a recombinant ACC2 baculovirus that was amplified and titered according to the protocols in the Bac-to-Bac baculovirus expression system manual (Invitrogen). The titered virus was used to infect Sf9 cells grown in Ex-Cell 420 serum-free medium (JRH Biosciences; Lenexa, Kans.). At 48 hours post-infection, the cells were harvested and stored at −80° C. until purification. ACC2 was purified using ammonium sulfate precipitation and anion exchange chromatography.\nThe enzymatic assay was run as follows: 30 μL of reaction buffer (100 mM HEPES pH 7.5, 20 mM MgCl2, 20 mM potassium citrate, 2 mM DTT) was added to a 384-well microtiter plate followed by 2 μL of the test compound (or 100% DMSO control). ACC2 protein (10 μL of a 50 nM working solution) was added to plate, which was incubated at room temperature for 15 minutes. A 30 μL addition of substrate solution (50 μM acetyl-CoA, 120 μM ATP, 2 mM KHCO3) was used to initiate the reactions which were quenched with 6% acetic acid (40 μL). ACC catalyzed malonyl-CoA formation was detected by LC/MS/MS using a Cohesive Technologies LX Series multiplex LC/MSIMS system configured with four binary pumps (Agilent Technologies; Palo Alto, Calif.), a dual arm autosampler (Leap Technologies; Cary, N.C.), and one Quattro Micro triple quadrupole mass spectrometer (Waters, Milford, Mass.), all run by Aria Software version 1.5 (Cohesive Technologies; Franklin, Mass.). Four samples were injected (20 μL) onto four Phenosphere NEXT C18 30×2 mm 5 μm columns (Phenomenex; Torrance, Calif.), eluted by four separate pumps, running identical gradients, through a column switching manifold with the one outlet fitted to the electrospray (ESI) source. Malonyl-CoA was eluted with 5 mM ammonium acetate, pH 4.5 (Buffer A) and 100% acetonitrile (Buffer B) via a step gradient. Argon was used as the collision gas and the following species were monitored via MRM detection: malonyl-CoA (853.8>346.9), internal standard (A: [^13C3]-malonyl-CoA, 857>350). The lower limit of detection is 0.3 uM for malonyl-CoA in this assay.", "values": [
      {"smiles": "Cn1c(C2CC2)cc2ccc(S(=O)(=O)N[C@H]3CC[C@](C)(C(=O)N4CCOCC4)CC3)cc21", "note": "[Example 24, 2-cyclopropyl-1-methyl-N-((1r,4r)-4-methyl-4-(morpholine-4-carbonyl)cyclohexyl)-1H-indole-6-sulfonamide]", "pIC50": 6.64},
      {"smiles": "C[C@@H](NC(=O)[C@H]1CC[C@H](NS(=O)(=O)c2ccc3c(Cl)c[nH]c3c2)CC1)c1ccc(F)cc1", "note": "[Example 26, (1r,4R)-4-(3-chloro-1H-indole-6-sulfonamido)-N—((R)-1-(4-fluorophenyl)ethyl)cyclohexanecarboxamide]", "pIC50": 7.70},
      {"smiles": "CC(C)[C@H](N)C(=O)OCc1ccc(-c2cc3ccc(S(=O)(=O)N[C@H]4CC[C@H](C(=O)N[C@H](C)c5ccc(F)cc5)CC4)cc3[nH]2)cc1", "note": "[Example 27, (S)-4-(6-(N-((1R,4r)-4-((R)-1-(4-fluorophenyl)ethylcarbamoyl)cyclohexyl)sulfamoyl)-1H-indol-2-yl)benzyl 2-amino-3-methylbutanoate]", "pIC50": "> 8.00"},
      {"smiles": "Cc1c(C2CC2)n(C)c2cc(S(=O)(=O)N[C@H]3CC[C@H](C(=O)N4CCOC[C@@H]4C)CC3)ccc12", "note": "[Example 32, 2-cyclopropyl-1,3-dimethyl-N-((1S,4r)-4-((S)-3-methylmorpholine-4-carbonyl)cyclohexyl)-1H-indole-6-sulfonamide]", "pIC50": 6.61},
      {"smiles": "C[C@@H](NC(=O)[C@H]1CC[C@H](NS(=O)(=O)c2cnc3c(c2)NCCN3)CC1)c1ccc(F)cc1", "note": "[Example 33, (1r,4R)—N—((R)-1-(4-fluorophenyl)ethyl)-4-(1,2,3,4-tetrahydropyrido[3,2-b]pyrazine-7-sulfonamido)cyclohexanecarboxamide]", "pIC50": 6.85},
      {"smiles": "C[C@@H](NC(=O)[C@H]1CC[C@H](NS(=O)(=O)c2cnc3c(c2)N(C)CCN3C)CC1)c1ccc(F)cc1", "note": "[Example 34, (1r,4R)-4-(1,4-dimethyl-1,2,3,4-tetrahydropyrido[3,2-b]pyrazine-7-sulfonamido)-N—((R)-1-(4-fluorophenyl)ethyl)cyclohexanecarboxamide]", "pIC50": 6.86},
      {"smiles": "C[C@@H](NC(=O)[C@H]1CC[C@H](NS(=O)(=O)c2cnc3c(c2)NCCS3)CC1)c1ccc(F)cc1", "note": "[Example 35, (1r,4R)-4-(2,3-dihydro-1H-pyrido[2,3-b][1,4]thiazine-7-sulfonamido)-N—((R)-1-(4-fluorophenyl)ethyl)cyclohexanecarboxamide]", "pIC50": 8.00},
      {"smiles": "CCOc1ccc2cc(S(=O)(=O)N[C@H]3CC[C@H](C(=O)N[C@H](C)c4ccc(F)cc4)CC3)ccc2n1", "note": "[Example 36, (1r,4R)-4-(2-ethoxyquinoline-6-sulfonamido)-N—((R)-1-(4-fluorophenyl)ethyl)cyclohexanecarboxamide]", "pIC50": 7.30},
      {"smiles": "CCOc1ccc2cc(S(=O)(=O)N[C@H]3CC[C@H](C(=O)N[C@@H](c4ccccc4)[C@@H](C)O)CC3)ccc2n1", "note": "[Example 37, (1r,4S)-4-(2-ethoxyquinoline-6-sulfonamido)-N-((1S,2R)-2-hydroxy-1-phenylpropyl)cyclohexanecarboxamide]", "pIC50": 7.12},
      {"smiles": "C[C@@H](NC(=O)[C@H]1CC[C@H](NS(=O)(=O)c2ccc3nc(N4CCN(C)CC4)ccc3c2)CC1)c1ccc(F)cc1", "note": "[Example 38, (1r,4R)-N-((R)-1-(4-fluorophenyl)ethyl)-4-(2-(4-methylpiperazin-1-yl)quinoline-6-sulfonamido)cyclohexanecarboxamide]", "pIC50": 7.30},
      {"smiles": "C[C@@H](NC(=O)[C@H]1CC[C@H](NS(=O)(=O)c2ccc3nc(-c4ccncc4)ccc3c2)CC1)c1ccc(F)cc1", "note": "[Example 39, (1r,4R)-N-((R)-1-(4-fluorophenyl)ethyl)-4-(2-(pyridin-4-yl)quinoline-6-sulfonamido)cyclohexanecarboxamide]", "pIC50": 7.60},
      {"smiles": "C[C@@H](NC(=O)[C@H]1CC[C@H](NS(=O)(=O)c2ccc3nc(C(F)(F)F)cn3c2)CC1)c1ccc(F)cc1", "note": "[Example 40, (1r,4R)-N-((R)-1-(4-fluorophenyl)ethyl)-4-(2-(trifluoromethyl)imidazo[1,2-a]pyridine-6-sulfonamido)cyclohexanecarboxamide]", "pIC50": 4.47},
      {"smiles": "C[C@@H](NC(=O)[C@H]1CC[C@H](NC(=O)Nc2ccc3[nH]c(-c4ccccc4)nc3c2)CC1)c1ccc(F)cc1", "note": "[Example 41, (1r,4R)-N-((R)-1-(4-fluorophenyl)ethyl)-4-(3-(2-phenyl-1H-benzo[d]imidazol-5-yl)ureido)cyclohexanecarboxamide]", "pIC50": 5.33},
      {"smiles": "C[C@@H](NC(=O)[C@H]1CC[C@H](NS(=O)(=O)c2ccc3nc(Cl)ccc3c2)CC1)c1ccc(F)cc1", "note": "[Example 42, (1r,4R)-4-(2-chloroquinoline-6-sulfonamido)-N-((R)-1-(4-fluorophenyl)ethyl)cyclohexanecarboxamide]", "pIC50": 7.03},
      {"smiles": "O=C([C@H]1CC[C@H](NS(=O)(=O)c2cnc3ccccc3c2)CC1)N1CCCC1c1ccccc1", "note": "(stereo partly drawn) [Example 43, N-((1r,4r)-4-(2-phenylpyrrolidine-1-carbonyl)cyclohexyl)quinoline-3-sulfonamide]", "pIC50": 6.39},
      {"smiles": "CC(NC(=O)[C@H]1CC[C@H](NS(=O)(=O)c2cnc3ccccc3c2)CC1)c1cccc(F)c1", "note": "(stereo partly drawn) [Example 44, (1r,4r)-N-(1-(3-fluorophenyl)ethyl)-4-(quinoline-3-sulfonamido)cyclohexanecarboxamide]", "pIC50": 6.35},
      {"smiles": "CC(NC(=O)[C@H]1CC[C@H](NS(=O)(=O)c2cnc3ccccc3c2)CC1)c1ccc(C(F)(F)F)cc1", "note": "(stereo partly drawn) [Example 45, (1r,4r)-4-(quinoline-3-sulfonamido)-N-(1-(4-(trifluoromethyl)phenyl)ethyl)cyclohexanecarboxamide]", "pIC50": "< 4.46"},
      {"smiles": "C[C@@H](NC(=O)[C@H]1CC[C@H](NS(=O)(=O)c2cnc3ccccc3c2)CC1)c1ccccc1C(F)(F)F", "note": "[Example 46, (1r,4R)-4-(quinoline-3-sulfonamido)-N-((R)-1-(2-(trifluoromethyl)phenyl)ethyl)cyclohexanecarboxamide]", "pIC50": 5.04},
      {"smiles": "CN1CCN(C(=O)[C@H]2CC[C@H](NS(=O)(=O)c3cnc4ccccc4c3)CC2)C(c2ccccc2)C1", "note": "(stereo partly drawn) [Example 47, N-((1r,4r)-4-(4-methyl-2-phenylpiperazine-1-carbonyl)cyclohexyl)quinoline-3-sulfonamide]", "pIC50": 5.37},
      {"smiles": "O=C([C@H]1CC[C@H](NS(=O)(=O)c2cnc3ccccc3c2)CC1)N1CCCC1C(F)(F)F", "note": "(stereo partly drawn) [Example 48, N-((1r,4r)-4-(2-(trifluoromethyl)pyrrolidine-1-carbonyl)cyclohexyl)quinoline-3-sulfonamide]", "pIC50": 4.48},
      {"smiles": "COc1ccc2cc(S(=O)(=O)N[C@H]3CC[C@H](C(=O)N[C@H](C)c4ccc(F)cc4)CC3)ccc2n1", "note": "[Example 49, (1r,4R)-N-((R)-1-(4-fluorophenyl)ethyl)-4-(2-methoxyquinoline-6-sulfonamido)cyclohexanecarboxamide]", "pIC50": 7.37},
      {"smiles": "C[C@@H](NC(=O)[C@H]1CC[C@H](NS(=O)(=O)c2ccc3nc(OCC(F)(F)F)ccc3c2)CC1)c1ccc(F)cc1", "note": "[Example 50, (1r,4R)-N-((R)-1-(4-fluorophenyl)ethyl)-4-(2-(2,2,2-trifluoroethoxy)quinoline-6-sulfonamido)cyclohexanecarboxamide]", "pIC50": "< 4.46"},
      {"smiles": "C[C@@H](NC(=O)[C@H]1CC[C@H](NS(=O)(=O)c2ccc3nc(OC4CCC4)ccc3c2)CC1)c1ccc(F)cc1", "note": "[Example 51, (1r,4R)-4-(2-cyclobutoxyquinoline-6-sulfonamido)-N-((R)-1-(4-fluorophenyl)ethyl)cyclohexanecarboxamide]", "pIC50": 7.00},
      {"smiles": "C[C@@H](NC(=O)[C@H]1CC[C@H](NS(=O)(=O)c2cnc3nc(-c4ccccc4)sc3c2)CC1)c1ccc(F)cc1", "note": "[Example 52, (1r,4R)-N-((R)-1-(4-fluorophenyl)ethyl)-4-(2-phenylthiazolo[4,5-b]pyridine-6-sulfonamido)cyclohexanecarboxamide]", "pIC50": 6.36},
      {"smiles": "C[C@@H](NC(=O)[C@H]1CC[C@H](NS(=O)(=O)c2ccc3nc(N(C)C)ccc3c2)CC1)c1ccc(F)cc1", "note": "[Example 53, (1r,4R)-4-(2-(dimethylamino)quinoline-6-sulfonamido)-N-((R)-1-(4-fluorophenyl)ethyl)cyclohexanecarboxamide]", "pIC50": 7.03},
      {"smiles": "C[C@@H](NC(=O)[C@H]1CC[C@H](NS(=O)(=O)c2ccc3nc(O)ccc3c2)CC1)c1ccc(F)cc1", "note": "[Example 54, (1r,4R)-N-((R)-1-(4-fluorophenyl)ethyl)-4-(2-hydroxyquinoline-6-sulfonamido)cyclohexanecarboxamide]", "pIC50": 6.71},
      {"smiles": "C[C@@H](NC(=O)[C@H]1CC[C@H](NS(=O)(=O)c2cnc3ccccc3c2)CC1)c1ccccc1", "note": "[Example 55, (1r,4R)-N-((R)-1-phenylethyl)-4-(quinoline-3-sulfonamido)cyclohexanecarboxamide]", "pIC50": 6.87}
    ]}
  ]
}
